Experimental data reported in publication PMC10179080, “In Vivo and In Vitro Characterization of Close Analogs of Compound KA-11, a New Antiseizure Drug Candidate” (International Journal of Molecular Sciences, 2023).

Key:
[1] = tested on: tonic–clonic seizures in mice; test: Maximal electroshock seizure (MES) test; type: in vivo
Protocol: (§1) The experiments were conducted on adult male albino Swiss mice weighing 22–26 g. The animals were kept in colony cages under standardized laboratory conditions: natural light–dark cycle 12/12 h, temperature 20–24 °C, air humidity 45–65% and free access to tap water and food (chow pellets). After 7 days of adaptation to laboratory conditions, the animals were randomly assigned to experimental groups consisting of 8 mice. The experimental procedures described herein were approved by the Local Ethics Committee in Lublin, Poland (approval numbers: 71/2020 and 13/2021), and were conducted in accordance with EU Directive 2010/63/EU for animal experiments. All efforts were made to minimize animal suffering and to use only the number of animals necessary to produce reliable scientific data according to the 3Rs rule.
(§2) All substances (except PTZ and tetracaine hydrochloride dissolved in water for injections) were suspended in a 1% solution of Tween 80 (Sigma-Aldrich, Saint Louis, MO, USA) in water for injections (Baxter, Warszawa, Poland) or 0.9% NaCl. All drugs were injected intraperitoneally (i.p.) 30 min before all seizure models with 1 mL syringes as a single injection, in a volume of 10 mL/kg. The pretreatment time (30 min) before testing for KA-228 and KA-232 was chosen based on the time to peak of maximum anticonvulsant activity of KA-11 from our previous studies.
The tonic–clonic seizures in mice were evoked by an electric stimulus (an alternating current 25 mA, 50 Hz, maximum output voltage 500 V, 0.2 s) generated by a rodent shocker (Hugo Sachs Elektronik, Freiburg, Germany) and delivered via ear-clip electrodes. […] This experimental procedure has been described in detail in our previous studies.
(§3) The ED50 or TD50 values for tested substances in the acute animal models of seizures were calculated using the computer log-probit analysis. Subsequently, the ED50 and TD50 values (±SEM) were statistically analyzed using one-way analysis of variance (ANOVA) followed by the post hoc Dunnett’s test for multiple comparisons. Differences among values were considered statistically significant if p < 0.05. GraphPad Prism version 8 for Windows (GraphPad Software, San Diego, CA, USA) was used as a statistical software program. The results obtained from the acute ivPTZ test and grip strength test were evaluated by a Student’s t test. Fisher’s exact probability test was used to analyze protection from tonic forelimb and hindlimb extension in the ivPTZ test.

[2] = tested on: 6-Hz-induced psychomotor seizures in mice; test: 6 Hz (32 mA) seizure model; type: in vivo
Protocol: as §1, §2
The 6-Hz-induced psychomotor seizures in mice were evoked by current (6 Hz, 0.2 ms rectangular pulse width, 32 mA, 3 s duration) generated by an S48 Square Pulse Stimulator and CCU1 Constant Current Unit (Grass Technologies, West Warwick, RI, USA). The animals were administered with increasing doses of KA-228 and KA-232, and the anticonvulsant activity of each drug was evaluated as the ED50. This experimental procedure has been described in detail in our previous studies.
as §3

[3] = tested on: PTZ-induced clonic seizures in mice; test: scPTZ-induced convulsions; type: in vivo; conditions: i.p.
Protocol: as §1, §2
The PTZ-induced clonic seizures in mice were determined after sc administration of PTZ at a dose of 100 mg/kg. The animals were administered with increasing doses of KA-228 and KA-232, and the anticonvulsant activity of each drug was evaluated as the ED50 value. This experimental procedure has been described in detail in our previous studies.
as §3

[4] = tested on: Calcium Cav1.2 channels (dihydropyridine site, antagonist radioligand); test: Radioligand binding, Cav1.2 dihydropyridine site; set-up: species or system rat
Protocol: (§4) Dysfunction of both sodium and calcium ion channels is known to be one of the crucial reasons behind the pathogenesis of seizures. Consequently, these ion channels are molecular targets for several clinically important ASDs such as lacosamide, lamotrigine, carbamazepine, oxcarbazepine and compounds currently under preclinical and clinical studies. Thus, for KA-228 and KA-232, we tested herein their binding profile toward the aforementioned ion channels at concentrations of 10 and 100 µM (Table 3). […] Apart from in vitro studies focused on explaining the mechanism of action, KA-232 was additionally tested for its interaction with the potassium channel (hERG) which is recognized as one of the most important ‘off-targets’ responsible for harmful arrhythmogenic activity. Thus, the interaction of potential drug candidates with hERG must be excluded at an early stage of development.
(§5) Binding studies were carried out commercially in Eurofins Laboratories (Poitiers, France or New Taipei City, Taiwan).

[5] = tested on: Calcium Cav1.2 channels (diltiazem site, antagonist radioligand); test: Radioligand binding, Cav1.2 diltiazem site; set-up: species or system rat
Protocol: as §4, §5

[6] = tested on: Calcium Cav1.2 channel (verapamil site, antagonist radioligand); test: Radioligand binding, Cav1.2 verapamil site; set-up: species or system rat; conditions: 10 µM
Protocol: as §4, §5

[7] = target: T1, Calcium Cav2.2 channel (antagonist radioligand) (Rattus norvegicus, UniProt Q02294); test: Radioligand binding, Cav2.2 channel
T1 construct: rat cerebral cortex; tissue Eurofins Laboratories; host or cells: rat cerebral cortex
T1 sequence (Q02294 whole entry): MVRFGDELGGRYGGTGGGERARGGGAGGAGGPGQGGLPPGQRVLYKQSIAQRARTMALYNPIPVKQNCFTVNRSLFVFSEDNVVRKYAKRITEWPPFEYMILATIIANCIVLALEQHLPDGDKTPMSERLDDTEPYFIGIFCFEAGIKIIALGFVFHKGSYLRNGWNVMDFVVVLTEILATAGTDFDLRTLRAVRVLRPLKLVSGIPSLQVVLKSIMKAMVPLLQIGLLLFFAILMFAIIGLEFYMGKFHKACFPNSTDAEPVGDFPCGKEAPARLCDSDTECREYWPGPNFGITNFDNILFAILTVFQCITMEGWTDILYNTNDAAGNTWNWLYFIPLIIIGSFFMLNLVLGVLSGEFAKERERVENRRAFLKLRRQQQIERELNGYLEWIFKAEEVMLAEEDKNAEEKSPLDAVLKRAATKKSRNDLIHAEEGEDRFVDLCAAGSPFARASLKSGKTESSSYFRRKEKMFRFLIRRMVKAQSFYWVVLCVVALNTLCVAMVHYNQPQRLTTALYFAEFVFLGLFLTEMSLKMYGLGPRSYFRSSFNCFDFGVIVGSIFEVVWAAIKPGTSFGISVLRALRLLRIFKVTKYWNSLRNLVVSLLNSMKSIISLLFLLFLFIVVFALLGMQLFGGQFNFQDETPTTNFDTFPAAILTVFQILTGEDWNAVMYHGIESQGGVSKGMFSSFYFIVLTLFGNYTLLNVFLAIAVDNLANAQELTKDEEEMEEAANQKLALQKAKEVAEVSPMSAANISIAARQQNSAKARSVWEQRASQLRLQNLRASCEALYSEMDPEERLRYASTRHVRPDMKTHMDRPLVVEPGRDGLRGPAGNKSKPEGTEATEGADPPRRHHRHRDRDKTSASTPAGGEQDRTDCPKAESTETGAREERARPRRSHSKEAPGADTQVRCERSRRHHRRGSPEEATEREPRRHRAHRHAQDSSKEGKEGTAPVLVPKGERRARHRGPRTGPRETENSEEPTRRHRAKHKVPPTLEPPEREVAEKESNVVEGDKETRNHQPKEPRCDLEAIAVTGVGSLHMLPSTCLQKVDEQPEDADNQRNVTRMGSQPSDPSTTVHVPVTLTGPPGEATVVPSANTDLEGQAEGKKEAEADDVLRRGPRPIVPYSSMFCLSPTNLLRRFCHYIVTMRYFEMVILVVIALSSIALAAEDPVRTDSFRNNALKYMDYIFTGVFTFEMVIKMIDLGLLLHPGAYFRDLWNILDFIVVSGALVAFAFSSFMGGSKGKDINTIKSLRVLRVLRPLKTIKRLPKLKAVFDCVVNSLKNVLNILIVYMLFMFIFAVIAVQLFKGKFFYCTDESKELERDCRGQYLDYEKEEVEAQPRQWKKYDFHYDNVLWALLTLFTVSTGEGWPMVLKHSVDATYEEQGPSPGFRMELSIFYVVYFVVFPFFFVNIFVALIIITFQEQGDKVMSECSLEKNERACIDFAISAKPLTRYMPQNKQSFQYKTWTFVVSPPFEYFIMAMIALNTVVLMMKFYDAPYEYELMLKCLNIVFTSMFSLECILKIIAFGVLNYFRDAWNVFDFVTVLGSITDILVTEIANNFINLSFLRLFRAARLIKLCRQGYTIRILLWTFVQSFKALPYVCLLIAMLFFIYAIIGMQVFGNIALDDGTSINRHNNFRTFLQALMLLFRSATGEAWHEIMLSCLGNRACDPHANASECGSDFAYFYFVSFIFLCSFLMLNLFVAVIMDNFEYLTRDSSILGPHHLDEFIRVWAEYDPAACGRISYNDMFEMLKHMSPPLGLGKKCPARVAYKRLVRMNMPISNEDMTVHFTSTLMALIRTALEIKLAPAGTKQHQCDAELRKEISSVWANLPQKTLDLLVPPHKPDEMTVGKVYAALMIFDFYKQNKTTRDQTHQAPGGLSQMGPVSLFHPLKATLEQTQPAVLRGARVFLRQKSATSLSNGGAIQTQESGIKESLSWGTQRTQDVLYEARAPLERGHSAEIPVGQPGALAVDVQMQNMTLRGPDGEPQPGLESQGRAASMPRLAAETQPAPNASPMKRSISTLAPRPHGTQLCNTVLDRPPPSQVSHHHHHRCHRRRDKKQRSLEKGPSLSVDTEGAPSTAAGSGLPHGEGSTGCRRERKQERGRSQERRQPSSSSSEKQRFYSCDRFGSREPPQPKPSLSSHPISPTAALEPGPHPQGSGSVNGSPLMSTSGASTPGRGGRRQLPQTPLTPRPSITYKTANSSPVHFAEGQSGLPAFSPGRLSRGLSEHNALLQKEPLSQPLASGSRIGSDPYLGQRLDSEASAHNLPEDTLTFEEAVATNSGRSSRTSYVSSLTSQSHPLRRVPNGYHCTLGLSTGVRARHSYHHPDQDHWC
Protocol: as §4, §5

[8] = target: GABAA (α1,β2,γ2) (agonist radioligand) (Homo sapiens, UniProt P14867+P47870); test: Radioligand binding, GABAA
GABAA (α1,β2,γ2) (agonist radioligand), sequence (P14867 28-456): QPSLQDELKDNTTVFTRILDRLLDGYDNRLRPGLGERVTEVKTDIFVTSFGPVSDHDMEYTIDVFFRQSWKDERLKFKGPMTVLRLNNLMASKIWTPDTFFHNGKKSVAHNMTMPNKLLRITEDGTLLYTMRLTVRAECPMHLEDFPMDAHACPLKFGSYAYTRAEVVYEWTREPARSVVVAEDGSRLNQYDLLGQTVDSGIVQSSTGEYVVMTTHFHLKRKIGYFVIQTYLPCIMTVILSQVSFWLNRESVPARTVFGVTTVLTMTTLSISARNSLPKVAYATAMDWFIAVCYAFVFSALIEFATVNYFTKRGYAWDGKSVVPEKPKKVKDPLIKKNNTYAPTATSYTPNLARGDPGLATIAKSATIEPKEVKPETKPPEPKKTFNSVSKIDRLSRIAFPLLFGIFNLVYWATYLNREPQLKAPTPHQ
GABAA (α1,β2,γ2) (agonist radioligand), sequence (P47870 25-512 limits assumed): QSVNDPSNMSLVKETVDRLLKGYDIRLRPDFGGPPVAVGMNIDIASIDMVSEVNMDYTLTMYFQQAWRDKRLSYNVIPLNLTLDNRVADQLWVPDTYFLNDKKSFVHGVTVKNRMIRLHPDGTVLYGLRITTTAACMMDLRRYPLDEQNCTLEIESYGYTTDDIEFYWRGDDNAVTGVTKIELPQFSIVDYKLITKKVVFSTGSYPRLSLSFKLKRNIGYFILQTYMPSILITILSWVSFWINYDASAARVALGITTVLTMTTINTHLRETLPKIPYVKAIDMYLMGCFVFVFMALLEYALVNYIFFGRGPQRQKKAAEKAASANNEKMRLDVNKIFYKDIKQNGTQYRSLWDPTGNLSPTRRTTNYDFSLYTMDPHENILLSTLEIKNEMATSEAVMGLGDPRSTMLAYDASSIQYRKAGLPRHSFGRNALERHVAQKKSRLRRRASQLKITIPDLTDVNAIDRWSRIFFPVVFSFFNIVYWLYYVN
GABAA (α1,β2,γ2) (agonist radioligand), sequence (P18507 40-475 partner): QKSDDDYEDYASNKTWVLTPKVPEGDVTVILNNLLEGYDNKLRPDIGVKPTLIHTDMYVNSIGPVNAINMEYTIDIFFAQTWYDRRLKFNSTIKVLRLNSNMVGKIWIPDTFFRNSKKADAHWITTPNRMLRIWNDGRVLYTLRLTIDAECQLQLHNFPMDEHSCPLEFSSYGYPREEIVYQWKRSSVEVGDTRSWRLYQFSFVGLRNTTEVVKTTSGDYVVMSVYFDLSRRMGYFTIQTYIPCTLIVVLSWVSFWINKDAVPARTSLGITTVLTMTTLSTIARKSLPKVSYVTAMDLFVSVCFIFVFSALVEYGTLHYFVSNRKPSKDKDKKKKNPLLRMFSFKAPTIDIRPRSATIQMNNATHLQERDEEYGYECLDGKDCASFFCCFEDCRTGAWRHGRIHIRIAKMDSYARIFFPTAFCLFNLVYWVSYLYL

[9] = target: 5-HT1A (agonist radioligand) (Homo sapiens, UniProt P08908); test: Radioligand binding, 5-HT1A
5-HT1A (agonist radioligand), sequence (P08908 whole entry): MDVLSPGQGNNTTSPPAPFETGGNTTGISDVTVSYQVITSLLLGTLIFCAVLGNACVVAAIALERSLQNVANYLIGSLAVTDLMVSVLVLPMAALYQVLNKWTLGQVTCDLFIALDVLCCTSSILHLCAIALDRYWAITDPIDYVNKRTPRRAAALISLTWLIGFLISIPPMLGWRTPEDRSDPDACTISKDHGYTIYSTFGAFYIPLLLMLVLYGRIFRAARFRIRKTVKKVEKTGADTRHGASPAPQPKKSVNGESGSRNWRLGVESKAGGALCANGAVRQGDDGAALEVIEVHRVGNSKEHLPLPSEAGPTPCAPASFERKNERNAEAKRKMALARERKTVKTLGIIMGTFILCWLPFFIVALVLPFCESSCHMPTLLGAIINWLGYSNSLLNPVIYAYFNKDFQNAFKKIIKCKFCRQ

Potassium channel (hERG) = target: T2, Potassium channel (hERG) (Homo sapiens, UniProt Q12809); test: Radioligand binding, potassium channel (hERG); conditions: 100 µM; KA-11 value not published before
T2 construct: host or cells: HEK-293 cells
Protocol: as §4, §5

CYP3A4 = target: T3, CYP3A4 (Homo sapiens, UniProt P08684); test: CYP3A4 P450-Glo assay; type: in vitro ADME; conditions: 10 µM
T3 construct: purchased Promega, Madison, WI, USA
T3 sequence (P08684 whole entry): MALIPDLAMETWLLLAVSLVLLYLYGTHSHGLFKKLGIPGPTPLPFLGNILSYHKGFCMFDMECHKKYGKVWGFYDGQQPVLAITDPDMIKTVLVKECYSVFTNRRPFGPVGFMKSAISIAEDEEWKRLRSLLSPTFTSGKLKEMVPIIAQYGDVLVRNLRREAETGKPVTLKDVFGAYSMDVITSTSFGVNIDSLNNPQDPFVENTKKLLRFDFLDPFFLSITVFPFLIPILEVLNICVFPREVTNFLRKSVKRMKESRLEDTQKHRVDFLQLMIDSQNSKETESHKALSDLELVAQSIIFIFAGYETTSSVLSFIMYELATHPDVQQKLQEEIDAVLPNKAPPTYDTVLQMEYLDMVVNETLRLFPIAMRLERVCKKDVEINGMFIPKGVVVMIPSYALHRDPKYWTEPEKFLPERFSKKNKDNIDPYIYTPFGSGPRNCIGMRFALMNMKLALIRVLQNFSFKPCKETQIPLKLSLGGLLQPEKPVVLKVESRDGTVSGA
Source text: The assays and protocols used for evaluating the KA-232 ADME-Tox parameters were similar to those described previously for compound KA-11 [6].
Figure 9 The effect of KA-232 and the reference drug ketoconazole (KE) on CYP3A4 activity (A). The effect of KA-232 and the reference drug quinidine (QD) on CYP2D6 activity (B). The effect of KA-232 and the reference cytostatic drug doxorubicin (DX) on the HepG2 cell line (C) and the SH-SY5Y cell line (D) viability. Statistical significance (* p < 0.05, **** p < 0.0001) was analyzed by Graph Pad Prism 8 software using one-way ANOVA and Bonferroni’s Multiple Comparison Post Test.

[10] = read-out: % Inhibition of Control Specific Binding

In the case of CC(C(=O)N1CCN(c2cccc(C(F)(F)F)c2)CC1)N1C(=O)CC(N(C)C)C1=O.Cl (centres unmarked) [KA-232, 3-(Dimethylamino)-1-(1-oxo-1-(4-(3-(trifluoromethyl)phenyl)piperazin-1-yl)propan-2-yl)pyrrolidine-2,5-dione hydrochloride], the ED50 ([1]; Mus musculus, ip, 30 min before test, read-out: ED50 MES ± SD) is reported as 61.8 ± 26.9 mg/kg, the “TI (TD50/ED50), MES” value ([1]; i.p.) is reported as 2.63 and the ED50 ([2]; Mus musculus, ip, 30 min before test, read-out: ED50 6 Hz ± SD) is reported as 26.5 ± 33.5 mg/kg. The “TI (TD50/ED50), 6 Hz” value ([2]; i.p.) was 6.14, the ED50 ([3]; Mus musculus, scPTZ 100 mg/kg, 30 min before test, read-out: ED50 PTZ ± SD) was 59.3 ± 78.2 mg/kg and the “TI (TD50/ED50), PTZ” value ([3]; scPTZ) was 2.75. For the same compound, the “% Inhibition of Control Specific Binding” value ([4]; 10 µM) was −6.3%, the “% Inhibition of Control Specific Binding” value ([4]; 100 µM) was 18.5% and the “% Inhibition of Control Specific Binding” value ([5]; 10 µM) was −1.8%. The “% Inhibition of Control Specific Binding” value ([5]; 100 µM) was 17.5%, the “% Inhibition of Control Specific Binding” value [6] was −2.8 (10) % and the “% Inhibition of Control Specific Binding” value ([7]; 10 µM) was “did not interact”. For the same compound, the inhibition at 10 µM [7, 10] was 10.6%, the “% Inhibition of Control Specific Binding” value ([8]; 10 µM) was “did not interact” and the inhibition at 10 µM [8, 10] was -6.7%. For the same compound, the “% Inhibition of Control Specific Binding” value ([9]; 10 µM) was “did not interact”, the inhibition at 10 µM [9, 10] was 9.6% and the “% Inhibition of Control Specific Binding” value (Potassium channel (hERG)) was “did not interact”. The “CYP3A4 activity (% of control ± SD)” value (CYP3A4) was 86.77 ± 5.71 % of control and the melting point was 141.4 to 143.5 °C.
